In patent US8754071B2 (priority 2011, dated 2014):

Molecular target: T1, c-kit (Homo sapiens, UniProt P10721)
T1 construct: human Mo7e cells which endogenously express c-kit; endogenous in cells; host or cells: human Mo7e cells (promegakaryocytic leukemia line), stimulated with human recombinant SCF
Experiment: Mo7e cell proliferation assay (SCF dependent proliferation)
Format: cell-based
Details: Table 2; human Mo7e cells stimulated with SCF, 48 hours, CellTiter Glo; 1% FBS; read-out: c-kit (Mo7e)
In short: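 Human Mo7e cells with endogenous c-kit, proliferation driven by SCF, 384-well format. After 48 h at 37 °C viability read by CellTiter-Glo luminescence. IC50 taken as concentration giving response halfway between baseline and maximum.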

T1 sequence (P10721 26-976): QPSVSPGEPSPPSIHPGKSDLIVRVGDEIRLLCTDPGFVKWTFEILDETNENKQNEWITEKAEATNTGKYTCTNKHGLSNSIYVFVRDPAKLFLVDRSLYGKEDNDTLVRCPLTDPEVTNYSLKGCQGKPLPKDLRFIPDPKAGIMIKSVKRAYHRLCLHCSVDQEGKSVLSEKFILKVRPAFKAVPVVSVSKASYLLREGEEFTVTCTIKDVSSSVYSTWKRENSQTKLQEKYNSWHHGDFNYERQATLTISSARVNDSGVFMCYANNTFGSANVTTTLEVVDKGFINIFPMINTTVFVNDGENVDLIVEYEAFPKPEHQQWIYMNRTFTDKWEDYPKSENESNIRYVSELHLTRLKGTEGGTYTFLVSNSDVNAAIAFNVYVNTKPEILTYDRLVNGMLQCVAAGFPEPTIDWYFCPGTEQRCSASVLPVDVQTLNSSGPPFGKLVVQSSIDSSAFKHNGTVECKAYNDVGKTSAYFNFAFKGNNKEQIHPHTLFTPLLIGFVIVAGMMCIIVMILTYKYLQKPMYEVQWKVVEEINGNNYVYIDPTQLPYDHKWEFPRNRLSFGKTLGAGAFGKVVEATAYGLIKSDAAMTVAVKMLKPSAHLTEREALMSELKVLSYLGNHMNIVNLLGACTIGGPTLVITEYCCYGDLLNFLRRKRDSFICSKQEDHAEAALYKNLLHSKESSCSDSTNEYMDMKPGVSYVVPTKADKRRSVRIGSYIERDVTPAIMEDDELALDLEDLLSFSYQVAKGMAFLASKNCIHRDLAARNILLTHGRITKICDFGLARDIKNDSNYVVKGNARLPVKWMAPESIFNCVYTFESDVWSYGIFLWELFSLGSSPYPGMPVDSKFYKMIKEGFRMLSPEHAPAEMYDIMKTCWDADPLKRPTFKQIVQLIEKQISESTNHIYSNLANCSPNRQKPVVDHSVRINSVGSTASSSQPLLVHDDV

SMILES | IC50 [nM]
COCC1CN(Cc2nc(-c3ccc(C)c(NC(=O)c4cnc5ccccn45)c3)no2)C1 [F182] | 259
Cc1ccc(-c2noc(C[C@@H]3CCN(C(=O)OC(C)(C)C)C3)n2)cc1NC(=O)c1cnc2ccccn12 [F184] | 496
Cc1ccc(-c2noc([C@H]3CCCN(C(=O)OC(C)(C)C)C3)n2)cc1NC(=O)c1cnc2ccccn12 [F187] | 320
Cc1ccc(-c2noc([C@H]3CNCCO3)n2)cc1NC(=O)c1cnc2ccccn12 [F189] | 824
Cc1ccc(-c2noc([C@@H]3CCCN3)n2)cc1NC(=O)c1cnc2ccccn12 [F190] | 476
Cc1ccc(-c2noc(C3CCC(=O)N3)n2)cc1NC(=O)c1cnc2ccccn12 (stereo not shown) [F192] | 672
CC(=O)N1CCC(c2nc(-c3ccc(C)c(NC(=O)c4cnc5ccccn45)c3)no2)CC1 [F193] | 354
COC(=O)N1CCC[C@H]1c1nc(-c2ccc(C)c(NC(=O)c3cnc4ccccn34)c2)no1 [F196] | 475
CC(=O)N1CCC[C@H]1c1nc(-c2ccc(C)c(NC(=O)c3cnc4ccccn34)c2)no1 [F197] | 460
CC(=O)N1CCO[C@@H](c2nc(-c3ccc(C)c(NC(=O)c4cnc5ccccn45)c3)no2)C1 [F199] | 509
COC(=O)N1CC(c2nc(-c3ccc(F)c(NC(=O)c4cnc5ccccn45)c3)no2)C1 [F201] | 443
COC(=O)N1CC[C@@H](Cc2nc(-c3ccc(C)c(NC(=O)c4cnc5ccccn45)c3)no2)C1 [F204] | 200
COC(=O)N1CC[C@H](Cc2nc(-c3ccc(C)c(NC(=O)c4cnc5ccccn45)c3)no2)C1 [F205] | 284
Cc1ccc(-c2noc(C[C@H]3CCN(S(C)(=O)=O)C3)n2)cc1NC(=O)c1cnc2ccccn12 [F206] | 169
Cc1ccc(-c2noc([C@H]3CCCN(S(C)(=O)=O)C3)n2)cc1NC(=O)c1cnc2ccccn12 [F209] | 148
COC(=O)N1CCC[C@@H]1c1nc(-c2ccc(C)c(NC(=O)c3cnc4ccccn34)c2)no1 [F212] | 170
Cc1ccc(-c2noc(C[C@@H]3CCCN3)n2)cc1NC(=O)c1cnc2ccccn12 [F216] | 519
Cc1ccc(-c2noc(C3CN(S(=O)(=O)c4cn[nH]c4)C3)n2)cc1NC(=O)c1cnc2ccccn12 [F218] | 155
O=C(Nc1cc(-c2noc(C3CN(S(=O)(=O)c4cccnc4)C3)n2)ccc1F)c1cnc2ccccn12 [F220] | 690
O=C(Nc1cc(-c2noc(C3CN(S(=O)(=O)C(F)F)C3)n2)ccc1F)c1cnc2ccccn12 [F223] | 151
COCCCN1CC(c2nc(-c3ccc(C)c(NC(=O)c4cnc5ccccn45)c3)no2)C1 [F225] | 239
Cc1ccc(-c2noc([C@@H](C)N3CCC(F)(F)C3)n2)cc1NC(=O)c1cnc2ccccn12 [F227] | 119
O=C(Nc1cc(-c2noc(CN3CC(F)(F)C3)n2)ccc1F)c1cnc2ccccn12 [F228] | 341
Cc1ccc(-c2noc(C3CN(C(=O)C(F)(F)F)C3)n2)cc1NC(=O)c1cnc2ccccn12 [F230] | 217
Cc1cc(F)c(-c2noc(C3CN(S(C)(=O)=O)C3)n2)cc1NC(=O)c1cnc2ccccn12 [F232] | 489
COC(=O)N1CC(c2nc(-c3ccc(C)c(NC(=O)c4cnc5ccc(C#N)cn45)c3)no2)C1 [F236] | 103

Continued by falling IC50, values first:

IC50 [nM] | SMILES
854 | Cn1cc(S(=O)(=O)N2CC(c3nc(-c4ccc(F)c(NC(=O)c5cnc6ccccn56)c4)no3)C2)cn1 [F224]
851 | Cn1ccc(S(=O)(=O)N2CC(c3nc(-c4ccc(F)c(NC(=O)c5cnc6ccccn56)c4)no3)C2)n1 [F221]
826 | Cc1ccc(-c2noc([C@@H]3CCCNC3)n2)cc1NC(=O)c1cnc2ccccn12 [F203]
710 | Cc1ccc(-c2noc(CC3CCN(C(=O)OC(C)(C)C)CC3)n2)cc1NC(=O)c1cnc2ccccn12 [F210]
566 | CC(=O)N1CCOC(c2nc(-c3ccc(C)c(NC(=O)c4cnc5ccccn45)c3)no2)C1 (stereo not shown) [F195]
465 | Cc1ccc(-c2noc([C@@H]3CCC(=O)N3)n2)cc1NC(=O)c1cnc2ccccn12 [F191]
454 | Cc1ccc(-c2noc(C(NC(=O)OC(C)(C)C)C3COC3)n2)cc1NC(=O)c1cnc2ccccn12 (stereo not shown) [F183]
452 | Cc1ccc(-c2noc(C[C@H]3CCN(C(=O)OC(C)(C)C)C3)n2)cc1NC(=O)c1cnc2ccccn12 [F185]
439 | COC(=O)N1CC(c2nc(-c3cc(NC(=O)c4cnc5ccccn45)c(C)cc3F)no2)C1 [F231]
399 | Cc1ccc(-c2noc(C3CNCCO3)n2)cc1NC(=O)c1cnc2ccccn12 (stereo not shown) [F188]
395 | Cc1ccc(-c2noc([C@H]3CCCN3)n2)cc1NC(=O)c1cnc2ccccn12 [F200]
376 | COCCS(=O)(=O)N1CC(c2nc(-c3ccc(F)c(NC(=O)c4cnc5ccccn45)c3)no2)C1 [F222]
337 | Cc1ccc(-c2noc(CN3CC(CO)C3)n2)cc1NC(=O)c1cnc2ccccn12 [F181]
291 | Cc1ccc(-c2noc([C@@H]3CCCN(C(=O)OC(C)(C)C)C3)n2)cc1NC(=O)c1cnc2ccccn12 [F186]
245 | O=C(Nc1cc(-c2noc(CN3CCOCC3)n2)ccc1F)c1cnc2ccccn12 [F229]
245 | Cc1ccc(-c2noc(C3CN(C(=O)OC(C)C)C3)n2)cc1NC(=O)c1cnc2ccccn12 [F234]

IC50 [nM] | SMILES
218 | COC(=O)N1CC(c2nc(-c3ccc(C)c(NC(=O)c4cnc5ccc(C(F)(F)F)cn45)c3)no2)C1 [F233]
208 | Cc1ccc(-c2noc([C@@H]3CCN3C(=O)OC3(C)CC3)n2)cc1NC(=O)c1cnc2ccccn12 [F202]
181 | COC(=O)N1CC(c2nc(-c3ccc(C)c(NC(=O)c4cnc5cc(C#N)ccn45)c3)no2)C1 [F235]
175 | Cc1ccc(-c2noc(CC3CCN(S(C)(=O)=O)CC3)n2)cc1NC(=O)c1cnc2ccccn12 [F215]
173 | Cc1ccc(-c2noc(C3CN(S(=O)(=O)c4cnn(C)c4)C3)n2)cc1NC(=O)c1cnc2ccccn12 [F217]
158 | CCCCS(=O)(=O)N1CC(c2nc(-c3ccc(F)c(NC(=O)c4cnc5ccccn45)c3)no2)C1 [F219]
142 | COC(=O)N1CCO[C@@H](c2nc(-c3ccc(C)c(NC(=O)c4cnc5ccccn45)c3)no2)C1 [F198]
142 | COC(=O)N1CCC(Cc2nc(-c3ccc(C)c(NC(=O)c4cnc5ccccn45)c3)no2)CC1 [F214]
141 | COC(=O)N1CCC[C@@H](c2nc(-c3ccc(C)c(NC(=O)c4cnc5ccccn45)c3)no2)C1 [F207]
137 | Cc1ccc(-c2noc([C@H]3CCCN3S(C)(=O)=O)n2)cc1NC(=O)c1cnc2ccccn12 [F213]
134 | COC(=O)N1CCC[C@H](c2nc(-c3ccc(C)c(NC(=O)c4cnc5ccccn45)c3)no2)C1 [F208]
130 | COC(=O)N1CC(c2nc(-c3ccc(C)c(NC(=O)c4cnc5cc(C(F)(F)F)ccn45)c3)no2)C1 [F238]
112 | Cc1ccc(-c2noc([C@@H](C)N3CC(F)(F)C3)n2)cc1NC(=O)c1cnc2ccccn12 [F226]
109 | COCC(c1nc(-c2ccc(C)c(NC(=O)c3cnc4ccccn34)c2)no1)N1CCC(F)(F)C1 (stereo not shown) [F237]
106 | Cc1ccc(-c2noc(C[C@@H]3CCCN3C(=O)OC(C)(C)C)n2)cc1NC(=O)c1cnc2ccccn12 [F211]
105 | COC(=O)N1CCOC(c2nc(-c3ccc(C)c(NC(=O)c4cnc5ccccn45)c3)no2)C1 (stereo not shown) [F194]
